Source: patent publication US5352707A, “Method for treating airway congestion” (Harbor Branch Oceanographic Institution, Inc., priority 1992, dated 1994)

Assays:
H3 receptor = target: T1, H3 receptor (Cavia porcellus, UniProt Q9JI35); test: H3 Receptor Binding Assay ([3H]R-α-methylhistamine, guinea pig brain membranes); conditions: 3 nM [3H]R-α-methylhistamine, 30° C., 30 minutes
T1 construct: The source of the H3 receptors in this experiment was guinea pig brain; from tissue; host or cells: guinea pig brain membranes
Procedure: The source of the H3 receptors in this experiment was guinea pig brain. The animals used weighed 400-600 g. The tissue was homogenized using a Polytron in a solution of 50 mM Tris, pH 7.5. The final concentration of tissue in the homogenization buffer was 10% w/v. The homogenates were centrifuged at 1000×g for 10 minutes in order to remove clumps of tissue and debris. The resulting supernatants were then centrifuged at 50,000×g for 20 minutes in order to sediment the membranes, which were next washed 3 times in homogenization buffer (50,000×g for 20 minutes each). The membranes were frozen and stored at -70° C. until needed.
All compounds to be tested were dissolved in DMSO (dimethyl sulfoxide) and then diluted into the binding buffer (50 mM Tris, pH 7.5) such that the final concentration was 2 μg/mL with 0.1% DMSO. Membranes were then added (400 μg of protein) to the reaction tubes. The reaction was started by the addition of 3 nM [^3 H]R-α-methylhistamine (8.8 Ci/mmol) and incubated at 30° C. for 30 minutes. Bound ligand was separated from unbound ligand by filtration, and the amount of radioactive ligand bound to the membranes was quantitated by liquid scintillation spectrometry. All incubations were performed in duplicate and the standard error was less than 10% in all instances.

guinea pig ileum = test: Guinea Pig Ileum Assay (electrical field stimulated contractions; H3 agonism/antagonism vs Rα-methylhistamine); type: cell-based; conditions: for Guinea Pig Ileum: at 1 μg/ml, 1 μM chlorpheniramine in Tyrodes buffer
Procedure: Male guinea pigs (450-500 g) were sacrificed by cervical dislocation. Portions of the ileum (20-40 cm) were removed and placed in Tyrodes solution (NaCl, 8.0; KCl, 0.2; MgCl2.6H2 O, 0.2; CaCl2. 0.13; NaH2 PO4. 0.06; dextrose, 1.0; NaHCO3, 1.0 g/l). The ilea were cut into 2.5 cm segments, mounted between platinum wire coaxial electrodes and placed in water-jacketed organ baths containing 25 ml of the Tyrodes solution. Bath fluid temperature was maintained at 37° C. and aerated with 95% 02-5%CO2. The muscles were suspended from isometric force transducers (Grass FT023C) under 0.3 g resting tension. Contractions were amplified on a Buxco tension monitor and recorded on a Harvard polygraph. Monophasic rectangular-wave electrical pulses were delivered to the tissues every 60 seconds from a stimulator (model S-48, Grass Instruments Co.). The ileum segments were maximally stimulated with 3 volts at 40 Hz frequency and 1 mseconds duration in 1 pulse train every 60 seconds. The duration of 1 msecond was then decreased by 0.1 msecond until the size of the contraction reached 80% of the maximal response. Once this 80% response was determined it was evoked every 60 seconds throughout the experiment. All experiments were conducted with 1μM of chlorpheniramine present in the Tyrodes buffer.
Rα-methylhistamine inhibits the electrical field stimulated contractions of the guinea pig ileum and was used as the H3 agonist reference standard. H3 agonists were studied for their ability to inhibit the electrical field stimulated contractions and their activity was expressed as a percentage of the maximum Rα-methylhistamine effect. Agonists were tested by addition of logarithmically increasing doses to the bath fluid at intervals of 1 minute. […]
Relative potency for agonists was determined from the pD2 calculations (Furchgott, R.F., The Pharmacology of Vascular Smooth Muscle. Pharm. Rev. 7, 183, 1955.) on 5 separate tissues. Relative potency for antagonists was determined from pA2 calculations (See Furchgott, above) on 15 separate tissues.

T1 sequence (Q9JI35 whole entry): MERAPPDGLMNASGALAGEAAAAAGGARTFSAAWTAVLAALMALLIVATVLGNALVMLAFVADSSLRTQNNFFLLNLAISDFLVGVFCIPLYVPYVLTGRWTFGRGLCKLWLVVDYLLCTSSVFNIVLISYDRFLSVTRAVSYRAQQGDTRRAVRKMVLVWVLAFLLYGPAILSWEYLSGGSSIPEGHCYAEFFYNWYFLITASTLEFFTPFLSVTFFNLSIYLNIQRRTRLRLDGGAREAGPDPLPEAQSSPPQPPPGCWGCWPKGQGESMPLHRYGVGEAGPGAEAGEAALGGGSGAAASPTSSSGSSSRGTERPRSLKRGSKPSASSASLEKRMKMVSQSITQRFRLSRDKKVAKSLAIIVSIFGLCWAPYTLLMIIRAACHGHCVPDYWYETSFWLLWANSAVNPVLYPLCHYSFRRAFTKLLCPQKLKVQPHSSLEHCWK

Compound | H3 receptor Binding IC50 (H3 receptor) [µg/mL] | Guinea Pig Ileum (guinea pig ileum) | IC50 (H3 receptor) [nM] | activity on the guinea pig ileum (guinea pig ileum)
COC1=C(Br)C(O)C2(C=C1Br)CC(C(=O)NCCc1c[nH]cn1)=NO2 (centres unmarked) [Aerophobin-1] | 4.3 | not active | – | –
CN(C)CCCOc1c(Br)cc(CCN(C)C)cc1Br [Aplysamine-1] | – | antagonist | 833 | active on the guinea pig ileum as an H3 -antagonist
